Laboratory results reported in patent US12383545B1, “Treatment of migraine” (priority 2018, dated 2025).

Test system: ALT or AST
Test: Example 5: postbaseline hepatic laboratory parameter values of clinical interest
Assay type: in vivo, human
Conditions: safety population; for Participants with Concurrent Elevations ALT or AST >=3 * ULN AND Bilirubin Total >=1.5 * ULN, n/N1 / Participants with Concurrent Elevations ALT or AST >=3 * ULN AND Bilirubin Total >=2 * ULN, n/N1 / Participants with Potential Hy's Law ALT or AST >=3 * ULN AND Bilirubin Total >=2 * ULN AND ALP <2 * ULN, n/N1: same day
Protocol: In a multicenter, randomized, double-blind, placebo-controlled, parallel-group study designed to evaluate the efficacy, safety, and tolerability of multiple doses and doses regimens of atogepant for the prevention of migraine. The patients were randomized (2:1:2:1:2:1) to 1 of 6 treatment groups: placebo, atogepant 10 mg QD, atogepant 30 mg QD, atogepant 30 mg BID, atogepant 60 mg QD, and atogepant 60 mg BID.
A total of 834 patients were randomized to double-blind treatment (ITT population), and 825 patients took at least 1 dose of double-blind IP (safety population). […] The primary efficacy variable was the change from baseline in mean monthly migraine/probable migraine headache days across the 12-week treatment period. The secondary efficacy variables were the change from baseline in mean monthly headache days across the 12-week treatment period, proportion of patients with at least a 50% reduction in mean monthly migraine/probable migraine headache days across the 12-week treatment period, and the change from baseline in mean monthly acute medication use days across the 12-week treatment period.

C[C@@H]1[C@H](c2c(F)ccc(F)c2F)C[C@H](NC(=O)c2cnc3c(c2)C[C@@]2(C3)C(=O)Nc3ncccc32)C(=O)N1CC(F)(F)F [atogepant]
Participants with postbaseline ALT or AST (U/L) >=2 * ULN, n/N1 (Atogepant 30 mg QD (N = 183)): 6/180 | Participants with postbaseline ALT or AST (U/L) >=3 * ULN, (%) (Atogepant 30 mg QD (N = 183)): (0.6) % | Participants with postbaseline ALT or AST (U/L) >=3 * ULN, n/N1 (Atogepant 30 mg QD (N = 183)): 1/180 | Participants with postbaseline ALT or AST (U/L) >=5 * ULN, n/N1 (Atogepant 30 mg QD (N = 183)): 0 | Participants with postbaseline ALT or AST (U/L) >=10 * ULN, n/N1 (Atogepant 30 mg QD (N = 183)): 0 | Participants with postbaseline ALT or AST (U/L) >=20 * ULN, n/N1 (Atogepant 30 mg QD (N = 183)): 0 | Participants with Concurrent Elevations ALT or AST >=3 * ULN AND Bilirubin Total >=1.5 * ULN, n/N1 (Atogepant 30 mg QD (N = 183)): 0 | Participants with Concurrent Elevations ALT or AST >=3 * ULN AND Bilirubin Total >=2 * ULN, n/N1 (Atogepant 30 mg QD (N = 183)): 0 | Participants with Potential Hy's Law ALT or AST >=3 * ULN AND Bilirubin Total >=2 * ULN AND ALP <2 * ULN, n/N1 (Atogepant 30 mg QD (N = 183)): 0 | Participants with postbaseline ALT or AST (U/L) >=1 * ULN, (%) (Atogepant 60 mg BID (N = 91)): (10.2) % | Participants with postbaseline ALT or AST (U/L) >=1 * ULN, n/N1 (Atogepant 60 mg BID (N = 91)): 9/88 | Participants with postbaseline ALT or AST (U/L) >=1.5 * ULN, (%) (Atogepant 60 mg BID (N = 91)): (1.1) % | Participants with postbaseline ALT or AST (U/L) >=1.5 * ULN, n/N1 (Atogepant 60 mg BID (N = 91)): 1/88 | Participants with postbaseline ALT or AST (U/L) >=2 * ULN, (%) (Atogepant 60 mg BID (N = 91)): (1.1) % | Participants with postbaseline ALT or AST (U/L) >=2 * ULN, n/N1 (Atogepant 60 mg BID (N = 91)): 1/88 | Participants with postbaseline ALT or AST (U/L) >=3 * ULN, (%) (Atogepant 60 mg BID (N = 91)): (1.1) % | Participants with postbaseline ALT or AST (U/L) >=3 * ULN, n/N1 (Atogepant 60 mg BID (N = 91)): 1/88 | Participants with postbaseline ALT or AST (U/L) >=5 * ULN, n/N1 (Atogepant 60 mg BID (N = 91)): 0 | Participants with postbaseline ALT or AST (U/L) >=10 * ULN, n/N1 (Atogepant 60 mg BID (N = 91)): 0 | Participants with postbaseline ALT or AST (U/L) >=20 * ULN, n/N1 (Atogepant 60 mg BID (N = 91)): 0 | Participants with Concurrent Elevations ALT or AST >=3 * ULN AND Bilirubin Total >=1.5 * ULN, n/N1 (Atogepant 60 mg BID (N = 91)): 0 | Participants with Concurrent Elevations ALT or AST >=3 * ULN AND Bilirubin Total >=2 * ULN, n/N1 (Atogepant 60 mg BID (N = 91)): 0 | Participants with Potential Hy's Law ALT or AST >=3 * ULN AND Bilirubin Total >=2 * ULN AND ALP <2 * ULN, n/N1 (Atogepant 60 mg BID (N = 91)): 0 | Participants with postbaseline ALT or AST (U/L) >=1 * ULN, (%) (Atogepant 60 mg QD (N = 186)): (13.8) % | Participants with postbaseline ALT or AST (U/L) >=1 * ULN, n/N1 (Atogepant 60 mg QD (N = 186)): 25/181 | Participants with postbaseline ALT or AST (U/L) >=1.5 * ULN, (%) (Atogepant 60 mg QD (N = 186)): (4.4) % | Participants with postbaseline ALT or AST (U/L) >=1.5 * ULN, n/N1 (Atogepant 60 mg QD (N = 186)): 8/181 | Participants with postbaseline ALT or AST (U/L) >=2 * ULN, (%) (Atogepant 60 mg QD (N = 186)): (2.8) % | Participants with postbaseline ALT or AST (U/L) >=2 * ULN, n/N1 (Atogepant 60 mg QD (N = 186)): 5/181 | Participants with postbaseline ALT or AST (U/L) >=3 * ULN, (%) (Atogepant 60 mg QD (N = 186)): (1.7) % | Participants with postbaseline ALT or AST (U/L) >=3 * ULN, n/N1 (Atogepant 60 mg QD (N = 186)): 3/181 | Participants with postbaseline ALT or AST (U/L) >=5 * ULN, (%) (Atogepant 60 mg QD (N = 186)): (0.6) % | Participants with postbaseline ALT or AST (U/L) >=5 * ULN, n/N1 (Atogepant 60 mg QD (N = 186)): 1/181 | Participants with postbaseline ALT or AST (U/L) >=10 * ULN, n/N1 (Atogepant 60 mg QD (N = 186)): 0 | Participants with postbaseline ALT or AST (U/L) >=20 * ULN, n/N1 (Atogepant 60 mg QD (N = 186)): 0 | Participants with Concurrent Elevations ALT or AST >=3 * ULN AND Bilirubin Total >=1.5 * ULN, n/N1 (Atogepant 60 mg QD (N = 186)): 0 | Participants with Concurrent Elevations ALT or AST >=3 * ULN AND Bilirubin Total >=2 * ULN, n/N1 (Atogepant 60 mg QD (N = 186)): 0 | Participants with Potential Hy's Law ALT or AST >=3 * ULN AND Bilirubin Total >=2 * ULN AND ALP <2 * ULN, n/N1 (Atogepant 60 mg QD (N = 186)): 0
